“And” between values parts separate entries of the source, which are not always exact repeats. Identical values can stand only once.
What was measured:
Assay in all cases: drug sensitivity score (DSS), CellTiter-Blue viability (DSS (AUC-based score)); higher = stronger viability inhibition; extreme values may be limits of the assay
Details in all cases: incubation time: 72 h
[1] = tested on: BT-474
Protocol: (§1)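 DSRT with the CellTiter-Blue (resazurin reduction) viability readout, fluorescence 560/590 nm, 72 h incubation. Plates were normalised to DMSO and benzethonium chloride controls. DSS is computed from the area under the fitted dose-response curve (5 or 9 concentrations).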

[2] = tested on: BT-549
Protocol: as §1

[3] = tested on: CAL-120
Protocol: as §1

[4] = tested on: CAL-148
Protocol: as §1

[5] = tested on: CAL-51
Protocol: as §1

[6] = tested on: CAL-85-1
Protocol: as §1

[7] = tested on: DU-4475
Protocol: as §1

[8] = tested on: HCC1143
Protocol: as §1

[9] = tested on: HCC1599
Protocol: as §1

[10] = tested on: HCC1937
Protocol: as §1

[11] = tested on: HDQ-P1
Protocol: as §1

[12] = tested on: Hs578T
Protocol: as §1

[13] = tested on: MDA-MB-231
Protocol: as §1

[14] = tested on: MDA-MB-436
Protocol: as §1

[15] = tested on: MDA-MB-453
Protocol: as §1

[16] = tested on: MDA-MB-468
Protocol: as §1

[17] = tested on: MFM-223
Protocol: as §1

[18] = tested on: SK-BR-3
Protocol: as §1

Row | SMILES | drug sensitivity score [1] | drug sensitivity score [2] | drug sensitivity score [3] | drug sensitivity score [4] | drug sensitivity score [5] | drug sensitivity score [6] | drug sensitivity score [7] | drug sensitivity score [8] | drug sensitivity score [9] | drug sensitivity score [10] | drug sensitivity score [11] | drug sensitivity score [12] | drug sensitivity score [13] | drug sensitivity score [14] | drug sensitivity score [15] | drug sensitivity score [16] | drug sensitivity score [17] | drug sensitivity score [18]
1 | Oc1ncnc2[nH]ncc12 [Allopurinol] | 0 | 0 | 0 | 0 | 0 | 0 | 0 | 0 | 0 | 0 | 0 | 0 | 0 | 0 | 0 | 0 | 0 | 0
2 | CC1=C2C[C@H]3[C@@H](CC=C4C[C@@H](O)CC[C@@]43C)[C@@H]2CC[C@]12O[C@@H]1C[C@H](C)CN[C@H]1[C@H]2C [Cyclopamine] | 0 | 0 | 0 | 0 | 0 | 0 | 0 | 0 | 0 | 0 | 0 | 0 | 0 | 0 | 0 | 0 | 0 | 0
3 | C[C@]1(O)C[C@@H](c2nc(-c3ccc4ccc(-c5ccccc5)nc4c3)c3c(N)nccn32)C1 [OSI-906] | 1.46 | 3.58 | 0 | 0 | 1.03 | 1.93 | 0 | 2.39 | 3.98 | 4.24 | 6.19 | 2 | 0 | 0 | 0 | 0 | 0 | 6.92
4 | O=C1CN2Cc3c(ccc(Cl)c3Cl)N=C2N1 [Anagrelide] | 0 | 0 | 0 | 0 | 4.77 | 0 | 0 | 0 | 0 | 2.41 | 0 | 0 | 0 | 0 | 0 | 0 | 0 | 0
5 | C[C@]12CC[C@@H]3c4ccc(OC(=O)N(CCCl)CCCl)cc4CC[C@H]3[C@@H]1CC[C@@H]2O [Estramustine] | 0 | 0 | 0 | 0 | 0 | 0 | 0 | 0 | 0 | 0 | 0 | 0 | 0 | 0 | 0 | 0 | 0 | 0
6 | Cn1cnc2c(F)c(Nc3ccc(Br)cc3Cl)c(C(=O)NOCCO)cc21 [Selumetinib] | 0 | 0 | 0.649 | 0 | 0.877 | 6.78 | 25.4 | 12.6 | 3.63 | 2.95 | 4.32 | 1.17 | 13.7 | 0 | 0 | 0 | 0 | 0
7 | CC1(C)CNc2cc(NC(=O)c3cccnc3NCc3ccncc3)ccc21 [Motesanib] | 0 | 0 | 0 | 0 | 0 | 0 | 0 | 0 | 0 | 0 | 0 | 0 | 0 | 0 | 0 | 0 | 0 | 0
8 | CC(=O)O[C@@]12CO[C@@H]1C[C@H](O)[C@@]1(C)C(=O)[C@H](O)C3=C(C)[C@@H](OC(=O)[C@H](O)[C@@H](NC(=O)OC(C)(C)C)c4ccccc4)C[C@@](O)([C@@H](OC(=O)c4ccccc4)[C@H]21)C3(C)C [Docetaxel] | 21.1 and 19.5 | 27.3 and 29.3 | 24 and 24.9 | 26.1 and 28.4 | 22.4 and 25.2 | 22.5 and 22.9 | 26.1 and 28.1 | 19.6 and 25.2 | 0 | 27.2 and 24.9 | 17.8 and 22.5 | 31.2 and 30.6 | 24.4 and 25.8 | 18.7 and 19.2 | 24.2 and 24.9 | 19.4 and 20.5 | 16.2 and 17.8 | 28.9 and 29.4
9 | Nc1ncn([C@@H]2O[C@H](CO)[C@@H](O)[C@H]2O)c(=O)n1 [Azacitidine] | 0 | 3.42 | 0.768 | 0 | 0 | 0 | 0 | 0 | 0 | 5.11 | 0 | 3.33 | 0 | 3.01 | 0 | 11.3 | 0 | 0
10 | Cc1sc2c(c1C)C(c1ccc(Cl)cc1)=N[C@@H](CC(=O)OC(C)(C)C)c1nnc(C)n1-2 [(+)JQ1] | 0 | 10.7 | 11.2 | 9.78 | 3.04 | 10.5 | 17.1 | 6.54 | 7.63 | 6.88 | 0 | 11 | 12.9 | 0 | 17.2 | 5.95 | 10.1 | 8.66
11 | COc1cc(F)c(F)c(Nc2ccc(I)cc2F)c1NS(=O)(=O)C1(C[C@H](O)CO)CC1 [RDEA119] | 0 | 0 | 7.36 | 0 | 6.65 | 10.3 | 28.1 | 8.17 | 0 | 5.85 | 11.4 | 8.25 | 18.7 | 0 | 5.64 | 4.71 | 5.52 | 0
12 | CC(=O)c1c(C)c2cnc(Nc3ccc(N4CCNCC4)cn3)nc2n(C2CCCC2)c1=O | 0 | 0 | 8.76 | 0 | 5.13 | 0 | 0 | 6.22 | 0 | 0 | 0 | 2.19 | 9.09 | 0 | 8.21 | 0 | 0 | 0
13 | Nc1nc2[nH]cnc2c(=S)[nH]1 [Thioguanine] | 0 | 0.924 | 7.28 | 2.39 | 0.794 | 3.32 | 0 | 0 | 0 | 3.55 | 0 | 2.55 | 8.63 | 4.56 | 0 | 7.48 | 0 | 0.902
14 | CC[C@@H]1C(=O)OC[C@@H]1Cc1cncn1C [Pilocarpine] | 0 | 0 | 0 | 0 | 0 | 0 | 0 | 0 | 0 | 0 | 0 | 0 | 0 | 0 | 0.965 | 0 | 0 | 0
15 | O=NN(CCCl)C(=O)NCCCl [Carmustine] | 0 | 0 | 0 | 0 | 0 | 0 | 0 | 0 | 0 | 0 | 0 | 0 | 0 | 0 | 0 | 0 | 0 | 0
16 | CC(C)(C)c1cnc(CSc2cnc(NC(=O)C3CCNCC3)s2)o1 [SNS-032] | 15.2 | 17.6 | 18.9 | 19.6 | 13.8 | 22.1 | 20.1 | 17.4 | 18 | 20.4 | 21.3 | 23.1 | 21.1 | 15 | 20 | 16.5 | 17.5 | 22
17 | COc1cc2c(cc1O)CC[C@@H]1[C@@H]2CC[C@]2(C)[C@@H](O)CC[C@@H]12 [2-methoxyestradiol] | 6.94 | 10.5 | 8.63 | 0 | 5.78 | 5.36 | 6.57 | 4.05 | 0 | 9.5 | 5.38 | 9.08 | 11.2 | 7.65 | 9.7 | 2.79 | 0 | 2.73

— the supplement of paper PMC4862054
